Experimental data published in patent US9771334B2, “Triketone compound and preparation method and use thereof” (SHANDONG CYNDA CHEMICAL CO., LTD., priority 2013, dated 2017).

How the values were obtained:
Assay in all cases: Herbicidal activity, pot culture method (primary and secondary screening test)
Type in all cases: in vivo
Details in all cases: primary screening, pot culture, 150 g/ha, sprayed at 3-leaf stage, result 15 days later
abutilon theophrasti = tested on: abutilon theophrasti
Method in brief: (§1)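 Percent growth inhibition of weeds sprayed at the 3-leaf stage, 150 g/ha in the primary screen and a lower dose in the secondary screen, scored 15 days after treatment under greenhouse conditions.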

amaranthus retroflexus = tested on: amaranthus retroflexus
Method in brief: as §1

echinochloa crusgalli = tested on: echinochloa crusgalli
Method in brief: as §1

eclipta prostrata = tested on: eclipta prostrata
Method in brief: as §1

digitaria sanguinalis = tested on: digitaria sanguinalis
Method in brief: as §1

setaria viridis = tested on: setaria viridis
Method in brief: as §1

Row | SMILES | herbicidal activity inhibition ratio (%), Abutilon theophrasti (abutilon theophrasti) [%] | herbicidal activity inhibition ratio (%), Amaranthus retroflexus (amaranthus retroflexus) [%] | herbicidal activity inhibition ratio (%), Echinochloa crusgalli (echinochloa crusgalli) [%] | herbicidal activity inhibition ratio (%), Eclipta prostrata (eclipta prostrata) [%] | herbicidal activity inhibition ratio (%), Digitaria sanguinalis (digitaria sanguinalis) [%] | herbicidal activity inhibition ratio (%), Setaria viridis (setaria viridis) [%]
1 | CC1CC(=O)C(C(=O)c2ccc3c(c2)c(=O)n(-c2ccccc2)c(=O)n3C)=C(O)C1 (stereo not drawn) [Compound 42] | 98 | 100 | 88 | 83 | 93 | 60
2 | Cn1c(=O)n(-c2ccc(C(F)(F)F)cc2)c(=O)c2cc(C(=O)C3=C(O)CC(C)(C)CC3=O)ccc21 [Compound 31] | 60 | 80 | 40 | 55 | 60 | 10
3 | CC(C)c1ccc(-n2c(=O)c3cc(C(=O)C4=C(O)CCCC4=O)ccc3n(C)c2=O)cc1 [Compound 36] | 50 | 35 | 25 | 0 | 100 | 50
4 | CC1CC(=O)C(C(=O)c2ccc3c(c2)c(=O)n(-c2ccc(Br)cc2)c(=O)n3C)=C(O)C1 (stereo not drawn) [Compound 90] | 92.5 | 20 | 90 | 83 | 93 | 85
5 | Cc1ccccc1-n1c(=O)c2cc(C(=O)C3=C(O)CC(C)(C)CC3=O)ccc2n(Cc2ccccc2F)c1=O [Compound 85] | 0 | 20 | 20 | 0 | 0 | 10
6 | Cn1c(=O)n(-c2cccc(C(F)(F)F)c2)c(=O)c2cc(C(=O)C3=C(O)CCCC3=O)ccc21 [Compound 52] | 55 | 98 | 85 | 75 | 50 | 80
7 | CCc1ccccc1-n1c(=O)c2cc(C(=O)C3=C(O)CC(C)(C)CC3=O)ccc2n(C)c1=O [Compound 89] | 100 | 100 | 80 | 70 | 60 | 75
8 | Cc1cccc(C)c1-n1c(=O)c2cc(C(=O)C3=C(O)C(C)(C)CCC3=O)ccc2n(C)c1=O [Compound 54] | 100 | 98 | 95 | 80 | 60 | 45
9 | Cn1c(=O)n(-c2ccccc2F)c(=O)c2cc(C(=O)C3=C(O)CCCC3=O)ccc21 [Compound 12] | 85 | 80 | 80 | 80 | 80 | 100
10 | Cn1c(=O)n(-c2cccc(C(F)(F)F)c2)c(=O)c2cc(C(=O)C3=C(O)CC(C)(C)CC3=O)ccc21 [Compound 51] | 93 | 90 | 50 | 80 | 83 | 40
11 | Cc1c(C(=O)C2=C(O)CCCC2=O)ccc2c1c(=O)n(-c1ccccc1C(F)(F)F)c(=O)n2C [Compound 92, 6-[(2-hydroxy-6-oxo-1-cyclohexenyl)carbonyl]-1,5-dimethyl-3-(2-(trifluoromethyl)phenyl)quinazoline-2,4(1H,3H)-dione] | 100 | 100 | 100 | 100 | 100 | 100
12 | Cc1cc(C)c(-n2c(=O)c3cc(C(=O)C4=C(O)CCCC4=O)ccc3n(C)c2=O)c(C)c1 [Compound 67] | 95 | 80 | 83 | 0 | 80 | 80
13 | CC(C)c1ccccc1-n1c(=O)c2cc(C(=O)C3=C(O)CCCC3=O)ccc2n(C)c1=O [Compound 97] | 98 | 100 | 55 | 90 | 50 | 50
14 | Cc1ccccc1-n1c(=O)c2c(C)c(C(=O)C3=C(O)CCCC3=O)ccc2n(C)c1=O [Compound 82] | 100 | 100 | 100 | 100 | 100 | 100
15 | Cn1c(=O)n(-c2ccc(OC(F)(F)F)cc2)c(=O)c2cc(C(=O)C3=C(O)CC(C)(C)CC3=O)ccc21 [Compound 49] | 100 | 95 | 65 | 80 | 90 | 50
